Assay results reported in US8367316B2, “Human gastrointestinal stem cell-derived primary intestinal epithelial cell system and methods of use thereof” (AlfaGene Bioscience, Inc., priority 2009, dated 2013).

Columns and labels:
Format in all cases: cell-based, human
[1] = tested on: hGISC derived primary ECs; test: Nitric oxide production after immunostimulation, Griess reaction assay; settings: agent alone; LPS (1 μm/ml), IFN-γ (200 u/ml); 24 hours; culture supernatants
Source text: (§1) Therefore, to gain insight about NO production regulation by intestinal EC, the effects of innate (LPS) and adaptive (IFN-γ) immunostimulatory agents on embodiments of the hGISC cell system derived non-transformed primary epithelial cells (EC) were studied and compared to a colonic adenocarcinoma EC line HT29.
[…] Cell free culture supernatants were collected and analyzed for NO content using a Griess Reaction kit (e.g., Griess Reagent System, Part #TB229) (PROMEGA, Madison, Wis.) in accordance with the manufacturer's instructions.
(§2) In another assay for NO, a macrophage cell line MHS served as a positive control. Cells were cultured with/without LPS (1 μm/ml), IFN-γ (200 u/ml), or in combination for 24 hours. Culture supernatants were analyzed for NO content by Griess reaction assay (as mentioned herein).

HT29 cells = test: as above; settings: agent alone; LPS (1 μm/ml), IFN-γ (200 u/ml); 24 hours; culture supernatants
Method: as §1, §2

TLR6 = test: Regulation of TLR expression by LPS on hGISC-derived primary epithelial cell line (FIG. 18); settings: LPS stimulation of HIPEC line, preliminary experiment
TLR2 = test: as above; settings: LPS stimulation of HIPEC line, preliminary experiment
TLR4 = test: as above; settings: LPS stimulation of HIPEC line, preliminary experiment
HIPEC line (A2J1) = test: Response to inflammatory mediators, IL-8 read-out; settings: stimulators at various concentrations
Method: Using both IL-8 and MIP-3α read-out procedures, an HIPEC line of the present invention (A2J1) was tested for response to various inflammatory mediators (stimulators). The HIPEC line was compared to a Caco-2 cell line. The following stimulators were used at various concentrations: IL-1β; TNFα; IFNγ; Pam3CSK4 (TLR2); LPS (TLR4); and Flagellin (TLR5).

HIPEC monolayers = test: Inulin permeability of HIPEC monolayers grown on TransWell filters, with or without pro-inflammatory cytokines; settings: cytokine treatment 24 hrs, 3H-labeled Inulin, +/- standard error
Method: Intestinal stem cell derived primary epithelial cell mono layers were tested for Inulin permeability.
Confluent monolayers of HIPEC cells were grown on transwell membranes in triplicates. Cells were then treated with or without pro-inflammatory cytokines for 24 hrs. ^3H-labeled Inulin was added to the upper chamber. Aliquots of medium retrieved from the upper and lower chambers were counted.
The % amount of inulin activity transported from the upper to the lower chamber was determined. The results are shown in Table 5 below, along with the standard error.

HIPEC line A2J1 = test: qPCR of markers for mature phenotype cells in HIPEC line upon cytokine stimulation; settings: 1 ng/ml IL-1b or 25 ng/ml TNFα (24 hrs)
Method: Using qPCR, the HIPEC line was also tested for various markers for mature phenotype cells, including the following cell subtypes: enteroendocrine; Goblet; Paneth; and enterocyte. The following markers were used, with the corresponding cell subtypes in parentheses: Somatostatin (enteroendocrine); Glucagon (enteroendocrine); Lysozyme (Goblet/Paneth); Defensin 5 (Goblet/Paneth); Trefoil factor 3 (Goblet/Paneth); Mucin 2 (Goblet/Paneth); Sucrose isomaltase (enterocyte); Carbonic anhydrase (enterocyte); Cd×2 promoter (enterocyte); and Guanylate cyclase c (enterocyte). Data from these tests supported a Goblet/secretory differentiation profile for the HIPEC line identified as A2J1 (derived from jejunem tissue).

[2] = Experiment #1, Medium Only 35.5% +/− 5.3
[3] = Experiment #2, Medium Only 41.6% +/− 0.96
[4] = Experiment #3, Medium Only 43.6% +/− 1.16

| Molecule | NO production [1] | NO production (HT29 cells) | TLR6 expression (TLR6) | TLR2 expression (TLR2) | TLR4 expression (TLR4) | IL-8 response (HIPEC line (A2J1)) | % amount of inulin activity transported from the upper to the lower chamber (HIPEC monolayers; [2]) | % amount of inulin activity transported from the upper to the lower chamber (HIPEC monolayers; [3]) | % amount of inulin activity transported from the upper to the lower chamber (HIPEC monolayers; [4]) | change in phenotype upon stimulation (HIPEC line A2J1) |
| --- | --- | --- | --- | --- | --- | --- | --- | --- | --- | --- |
| lipopolysaccharide [LPS] | neither LPS nor IFN-γ alone affect NO production | neither LPS nor IFN-γ alone affect NO production | upregulated | upregulated | upregulated | – | – | – | – | – |
| tumor necrosis factor alpha [TNF-α] | – | – | – | – | – | responsive | 41.2% +/− 0.66 | 46.6% +/− 1.05 | 49.0% +/− 1.95 | no change in phenotype |
| IFN-γ: interferon; adaptive immunostimulatory agent | neither LPS nor IFN-γ alone affect NO production | neither LPS nor IFN-γ alone affect NO production | – | – | – | responsive | 36.0% +/− 2.8 | 42.6% +/− 2.07 | 42.7% +/− 0.30 | – |
| IL-1β: pro-inflammatory cytokine; interleukin | – | – | – | – | – | responsive | 43.5% +/− 1.36 | 50.4% +/− 0.94 | 54.0% +/− 1.59 | no change in phenotype |
| IL-6: pro-inflammatory cytokine | – | – | – | – | – | – | 36.5% +/− 0.48 | 41.8% +/− 0.59 | – | – |
| IL-1α: pro-inflammatory cytokine (protein, UniProt P01583 113-271, looked up) Interleukin-1 alpha: SAPFSFLSNVKYNFMRIIKYEFILNDALNQSIIRANDQYLTAAALHNLDEAVKFDMGAYKSSKDDAKITVILRISKTQLYVTAQDEDQPVLLKEMPEIPKTITGSETNLLFFWETHGTKNYFTSVAHPNLFIATKQDYWVCLAGGPPSITDFQILENQA | – | – | – | – | – | – | 40.0% +/− 3.6 | 47.4% +/− 0.59 | 50.7% +/− 0.40 | – |
